What was measured:
Format in all cases: in vivo
[1] = test system: spring wheat, TRZAS Triso; assay: Seed treatment with safener; post-emergence herbicide, crop damage; conditions: for HER effect + SAF [%] (crop damage) / Reduction [%] / Reduction [Difference]: mefenpyr-diethyl 0.5 g a.i./kg seed; for HER effect [%] (crop damage, herbicide without safener): no safener
Text: (§1) For safener seed treatment trials, sufficient seed amounts of the respective crops (spring wheat (TRZAS); spring barley (HORVS)) were weighed into screw cap glass bottles with a minimum volume trice of the seeds.
(§2) As a first step, specified safeners formulated as wettable powder (WP) or wettable granules (WG) were weighed out for the required dosages (g a.i./kg seed), corresponding to the seed amounts. The safener amounts were mixed with a coloured slurry blind formulation type, prediluted with milk at 3.5% fat rate (25 mgs slurry formulation plus 2 ml milk per 10 grams of seed). A tube roller was used for coating. The solutions were gradually pipetted each on the rotating seeds followed by coating for min. 3 hours until all liquid had been soaked up by the seeds. Thereafter, the coated seeds were put flat on open trays for drying over night at room temperature.
(§3) Treated seeds were then placed into pots (7 cm diameter) on the surface of sandy loam, pressed down, flat covered with additional soil and finally covered with sandy soil, also pressed down, watered, and kept under good growth conditions in a greenhouse, until the plants had reached 2-leaf-stage (BBCH 12).
(§4) At that stage, post-emergence application of the specified herbicides was done on:
(§5) a) pot sets containing plants with safener-coated seeds as described above,
(§6) b) as a reference, pot sets of plants without seed treatment.
(§7) The herbicides were formulated as wettable powder (WP). Equivalent to the spray area, compound amounts were weighed out and diluted related to the water application rate (300 l/ha) to an aqueous suspension plus additive (1 l/ha MERO). Dosage related equivalents were conventionally sprayed on trays with the potted plants.
(§8) After application, the test plants were kept under good growth conditions in a greenhouse.
(§9) Assessment timings were 10 and 21 days after treatment (DAT) with the herbicide, by visual scoring of the crop damage in % (comparison of untreated with treated plants, either sprayed only with herbicide or with herbicide on plants with treated seeds).

[2] = test system: spring wheat, TRZAS Triso; assay: Tank-mix; post-emergence: crop damage by herbicide with/without safener mefenpyr-diethyl
Experimental: (§10) Seeds of crops (spring wheat, TRZAS; spring barley, HORVS; maize, ZEAMA) were placed in sandy loam soil in peat pots, covered with soil and cultivated in a greenhouse under good growth conditions. Two to three weeks after sowing, the test plants were treated at the 1 to 3-leaf stage. The herbicide/safener active compound combinations according to the invention, formulated as wettable powders or emulsion concentrates, and, in parallel tests, the correspondingly formulated individual active compounds were sprayed onto the green parts of the plants in various dosages using an amount of water of 300 l/ha (converted).
(§11) The pots were returned under good growing conditions in a glasshouse and a visual assessment of herbicidal effects was made at intervals from 1 to 3 weeks after herbicide application (DAT=days after treatment). Assessment was on a percentage basis in comparison with untreated control plants (0%=no injury, 100%=complete kill).

[3] = test system: spring barley, HORVS Montoya; assay: as above; conditions: 10 DAT
Experimental: as §10, §11

[4] = test system: spring barley, HORVS Montoya; assay: Seed treatment with safener; post-emergence herbicide, crop damage; conditions: for HER effect + SAF / Reduction [%] / Reduction [Difference]: mefenpyr-diethyl 0.5 g a.i./kg seed
Text: as §1, §2, §3, §4, §5, §6, §7, §8, §9

[5] = HER 8 g a.i./ha + mefenpyr-diethyl 50 g a.i./ha, 10 DAT
[6] = herbicide alone 8 g a.i./ha, 10 DAT
[7] = HER 2 g a.i./ha + mefenpyr-diethyl 50 g a.i./ha
[8] = HER 8 g a.i./ha + mefenpyr-diethyl 100 g a.i./ha
[9] = HER 2 g a.i./ha post-emergence, 21 DAT
[10] = HER 32 g a.i./ha post-emergence, 21 DAT
[11] = herbicide alone 32 g a.i./ha post-emergence, 21 DAT
[12] = HER 2 g a.i./ha + mefenpyr-diethyl 50 g a.i./ha, 10 DAT
[13] = HER 32 g a.i./ha post-emergence, 10 DAT
[14] = HER 8 g a.i./ha + mefenpyr-diethyl 50 g a.i./ha
[15] = HER 32 g a.i./ha + mefenpyr-diethyl 100 g a.i./ha
[16] = HER 8 g a.i./ha post-emergence, 21 DAT
[17] = HER 2 g a.i./ha + mefenpyr-diethyl 50 g a.i./ha, 21 DAT
[18] = HER 8 g a.i./ha + mefenpyr-diethyl 50 g a.i./ha, 21 DAT

COCCOC(=O)C1C=CC(NC(=O)C2(C(F)(F)F)CC(c3cc(F)cc(C#N)c3)=NO2)C1 (stereo not drawn) [Example 1.2]
HER effect + SAF [%] (crop damage) ([1]; 10 DAT, HER dose 8 g a.i./ha): 10% | Reduction [%] ([1]; 10 DAT, HER dose 8 g a.i./ha): 89% | Reduction [Difference] ([1]; 10 DAT, HER dose 8 g a.i./ha): 80 | HER effect [%] (crop damage, herbicide without safener) ([1]; 10 DAT, HER dose 8 g a.i./ha): 90% | HER effect + SAF [%] (crop damage) ([1]; 10 DAT, HER dose 32 g a.i./ha): 30% | Reduction [%] ([1]; 10 DAT, HER dose 32 g a.i./ha): 67% | Reduction [Difference] ([1]; 10 DAT, HER dose 32 g a.i./ha): 60 | HER effect [%] (crop damage, herbicide without safener) ([1]; 10 DAT, HER dose 32 g a.i./ha): 90% | HER effect + SAF [2, 5]: 50% | Reduction [%] [2, 5]: 44% | Reduction [Difference] [2, 5]: 40 | HER effect [2, 6]: 90% | HER effect + SAF [3, 7]: 0% | Reduction [%] [3, 7]: 100% | Reduction [Difference] [3, 7]: 20 | HER effect + SAF [3, 8]: 0% | Reduction [%] [3, 8]: 100% | Reduction [Difference] [3, 8]: 30 | HER effect ([3]; herbicide alone 2 g a.i./ha): 20% | HER effect ([3]; herbicide alone 8 g a.i./ha): 30%

CSCCOC(=O)C1C=CC(NC(=O)C2(C(F)(F)F)CC(c3cc(F)cc(F)c3)=NO2)C1 (stereo not drawn) [Example 1.7]
HER effect + SAF [%] (crop damage) ([1]; 10 DAT, HER dose 2 g a.i./ha): 0% | Reduction [%] ([1]; 10 DAT, HER dose 2 g a.i./ha): 100% | Reduction [Difference] ([1]; 10 DAT, HER dose 2 g a.i./ha): 50 | HER effect [%] (crop damage, herbicide without safener) ([1]; 10 DAT, HER dose 2 g a.i./ha): 50% | HER effect + SAF [%] (crop damage) ([1]; 10 DAT, HER dose 8 g a.i./ha): 40% | Reduction [%] ([1]; 10 DAT, HER dose 8 g a.i./ha): 57% | Reduction [Difference] ([1]; 10 DAT, HER dose 8 g a.i./ha): 53 | HER effect [%] (crop damage, herbicide without safener) ([1]; 10 DAT, HER dose 8 g a.i./ha): 93% | HER effect + SAF [4, 9]: 40% | Reduction [%] [4, 9]: 43% | Reduction [Difference] [4, 9]: 30 | HER effect + SAF [4, 10]: 50% | Reduction [%] [4, 10]: 47% | Reduction [Difference] [4, 10]: 45 | HER effect ([4]; herbicide alone 2 g a.i./ha post-emergence, 21 DAT): 70% | HER effect [4, 11]: 95% | HER effect + SAF [2, 12]: 0% | Reduction [%] [2, 12]: 100% | Reduction [Difference] [2, 12]: 50 | HER effect + SAF [2, 5]: 70% | Reduction [%] [2, 5]: 25% | Reduction [Difference] [2, 5]: 23 | HER effect ([2]; herbicide alone 2 g a.i./ha, 10 DAT): 50% | HER effect [2, 6]: 93%

COC(=O)C1C=CC(NC(=O)C2(C(F)(F)F)CC(c3cccc(F)c3)=NO2)C1 (stereo not drawn) [Example 1.18]
HER effect + SAF [4, 13]: 20% | Reduction [%] [4, 13]: 75% | Reduction [Difference] [4, 13]: 60 | HER effect ([4]; herbicide alone 32 g a.i./ha post-emergence, 10 DAT): 80% | HER effect + SAF [3, 14]: 0% | Reduction [%] [3, 14]: 100% | Reduction [Difference] [3, 14]: 20 | HER effect + SAF [3, 15]: 10% | Reduction [%] [3, 15]: 88% | Reduction [Difference] [3, 15]: 70 | HER effect ([3]; herbicide alone 8 g a.i./ha): 20% | HER effect ([3]; herbicide alone 32 g a.i./ha): 80%

C=CC1(C(=O)NC2C=CC(C(=O)O)C2)CC(c2cc(F)cc(F)c2)=NO1 (stereo not drawn) [Example 1.58]
HER effect + SAF [%] (crop damage) ([1]; 21 DAT, HER dose 2 g a.i./ha): 0% | Reduction [%] ([1]; 21 DAT, HER dose 2 g a.i./ha): 100% | Reduction [Difference] ([1]; 21 DAT, HER dose 2 g a.i./ha): 85 | HER effect [%] (crop damage, herbicide without safener) ([1]; 21 DAT, HER dose 2 g a.i./ha): 85% | HER effect + SAF [%] (crop damage) ([1]; 21 DAT, HER dose 8 g a.i./ha): 0% | Reduction [%] ([1]; 21 DAT, HER dose 8 g a.i./ha): 100% | Reduction [Difference] ([1]; 21 DAT, HER dose 8 g a.i./ha): 93 | HER effect [%] (crop damage, herbicide without safener) ([1]; 21 DAT, HER dose 8 g a.i./ha): 93% | HER effect + SAF [%] (crop damage) ([1]; 21 DAT, HER dose 32 g a.i./ha): 10% | Reduction [%] ([1]; 21 DAT, HER dose 32 g a.i./ha): 89% | Reduction [Difference] ([1]; 21 DAT, HER dose 32 g a.i./ha): 83 | HER effect [%] (crop damage, herbicide without safener) ([1]; 21 DAT, HER dose 32 g a.i./ha): 93% | HER effect + SAF [4, 16]: 0% | Reduction [%] [4, 16]: 100% | Reduction [Difference] [4, 16]: 95 | HER effect + SAF [4, 10]: 40% | Reduction [%] [4, 10]: 58% | Reduction [Difference] [4, 10]: 55 | HER effect ([4]; herbicide alone 8 g a.i./ha post-emergence, 21 DAT): 95% | HER effect [4, 11]: 95% | HER effect + SAF [2, 17]: 10% | Reduction [%] [2, 17]: 88% | Reduction [Difference] [2, 17]: 75 | HER effect + SAF [2, 18]: 40% | Reduction [%] [2, 18]: 57% | Reduction [Difference] [2, 18]: 53 | HER effect ([2]; herbicide alone 2 g a.i./ha, 21 DAT): 85% | HER effect ([2]; herbicide alone 8 g a.i./ha, 21 DAT): 93%
